Molecular target: T1, Hel a 6 (Helianthus annuus, UniProt A0A251RNJ1)
T1 construct: gene PLY2; natural protein purified from sunflower pollen
T1 sequence (A0A251RNJ1 23-394): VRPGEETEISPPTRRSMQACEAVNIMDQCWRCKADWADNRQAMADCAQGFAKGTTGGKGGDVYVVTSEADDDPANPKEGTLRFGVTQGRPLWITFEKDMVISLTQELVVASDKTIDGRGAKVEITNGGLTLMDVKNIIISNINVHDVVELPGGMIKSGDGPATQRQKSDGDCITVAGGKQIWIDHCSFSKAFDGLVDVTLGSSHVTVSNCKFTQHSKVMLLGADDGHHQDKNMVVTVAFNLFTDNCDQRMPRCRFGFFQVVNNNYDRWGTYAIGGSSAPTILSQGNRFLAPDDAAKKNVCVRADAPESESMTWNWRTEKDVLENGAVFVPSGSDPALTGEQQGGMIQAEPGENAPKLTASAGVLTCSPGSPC
Test: pectate lyase assay, A235 increase
Assay type: biochemical
Details: 10 mM salicylic acid; 0.2% polygalacturonic acid, 0.2 mM CaCl2, 25 mM Tris-HCl pH 8.0, 37 °C (methods; results say 40 °C)

## O=C(O)c1ccccc1O [salicylic acid]
  pectate lyase assay, A235 increase: the enzyme activity was ceased entirely when salicylic acid was added to the reaction mix
